# How the values were obtained:
# [1] = test system: Fusarium graminearum (FGR; isolate 73B ISU); type: cell-based; conditions: for IC50 (ppm) High Salt Fgr: high salt: 1/2x liquid media plus 1 mM calcium chloride, 50 mM potassium chloride; for IC50 (ppm) Low Salt Fgr: low salt: 1/8x potato dextrose broth plus 0.25 mM calcium chloride, 12.5 mM potassium chloride
# [2] = test system: Fusarium verticillioides (FVE); type: cell-based
# [3] = test system: C. graminicola; test: Invasion of leaf sheaths of transgenic maize by C. graminicola; type: in vivo, Colletotrichum graminicola; conditions: greenhouse, T0 V5-stage maize
# Protocol: The leaf sheaths of leaf 4 or 5 of T0 plants at the V5 stage were inoculated with 50 μL of 5×10^6 spores/mL after wounding the leaf sheath on both sides of the midrib about half way between edge and midrib with a small screwdriver. The leaf sheath was covered with plastic wrap for 5 days. Nine days after inoculation the area of lesions was measured.
# [4] = test system: Diplodia maydis (DMA); type: cell-based; conditions: high salt: 1/2x liquid media plus 1 mM calcium chloride, 50 mM potassium chloride
# [5] = test system: Colletotrichum graminicola (CGR; isolate Carroll-IA-99); type: cell-based; conditions: for Antifungal activity (IC50 in ppm) against C. graminicola under high salt conditions: Table 2; for IC50 (ppm) High Salt Cgr: high salt: 1/2x liquid media plus 1 mM calcium chloride, 50 mM potassium chloride, Table 1; for IC50 (ppm) Low Salt Cgr: low salt: 1/8x Czapek-Dox broth plus 0.25 mM calcium chloride, 12.5 mM potassium chloride
Substance,IC50 (ppm) High Salt Fgr [1],IC50 (ppm) Low Salt Fgr [1],IC50 (ppm) High Salt Fve [2],relation of protein level to disease development ([3]; leaf sheath invasion by CGR),"invasion of leaf sheaths by CGR compared to empty vector controls ([3]; protein accumulated in endoplasmic reticulum, two transformation constructs)",IC50 (ppm) High Salt Dma [4],Antifungal activity (IC50 in ppm) against C. graminicola under high salt conditions [5],IC50 (ppm) High Salt Cgr [5],IC50 (ppm) Low Salt Cgr [5]
Pp-PDF1-1C-7A4: Pp-PDF1 variant from first shuffling round (RVCEKPSKFFKGLCGSDRDCTNACRKEGLATGECQSKGFFNSVCVCKKPC; Synthetic sequence obtained from DNA shuffling of a plant sequence.),20 ppm,4.7 ppm,>200 ppm,correlated inversely with disease development,significantly improved events,50 ppm,5 ppm,5 ppm,0.1 ppm
Pp-PDF1-1C-7C4: Pp-PDF1 variant from first shuffling round (RVCTKPSKFFKGMCVSDNDCTHACRKEGLATGFCQSKGFFNSVCVCTKPC; Synthetic sequence obtained from DNA shuffling of a plant sequence.),20 ppm,4.7 ppm,>200 ppm,–,–,25 ppm,5 ppm,3 ppm,0.14 ppm

# — patent US8865967B2 (priority 2010, dated 2014)
